BindingDB's records for doi:10.1074/jbc.M111.274068 (Astrazeneca, 2011)

Key:
Conditions in all cases: pH 7.35
[1] = target: Bifunctional protein GlmU (Streptococcus pneumoniae (strain ATCC BAA-255 / R6), UniProt Q8DQ18); experiment: Inhibition Assay
From the text: (§1) Inhibition assay using GlmU bifuncation enzyme with various bacterial strains.

[2] = target: Bifunctional protein GlmU (Escherichia coli (strain K12), UniProt P0ACC7); experiment: Inhibition Assay
From the text: as §1

[3] = target: Bifunctional protein GlmU (Haemophilus influenzae (strain ATCC 51907 / DSM 11121 / KW20 / Rd), UniProt P43889); experiment: Inhibition Assay
Bifunctional protein GlmU (Haemophilus influenzae (strain ATCC 51907 / DSM 11121 / KW20 / Rd), UniProt P43889), sequence (P43889 whole entry): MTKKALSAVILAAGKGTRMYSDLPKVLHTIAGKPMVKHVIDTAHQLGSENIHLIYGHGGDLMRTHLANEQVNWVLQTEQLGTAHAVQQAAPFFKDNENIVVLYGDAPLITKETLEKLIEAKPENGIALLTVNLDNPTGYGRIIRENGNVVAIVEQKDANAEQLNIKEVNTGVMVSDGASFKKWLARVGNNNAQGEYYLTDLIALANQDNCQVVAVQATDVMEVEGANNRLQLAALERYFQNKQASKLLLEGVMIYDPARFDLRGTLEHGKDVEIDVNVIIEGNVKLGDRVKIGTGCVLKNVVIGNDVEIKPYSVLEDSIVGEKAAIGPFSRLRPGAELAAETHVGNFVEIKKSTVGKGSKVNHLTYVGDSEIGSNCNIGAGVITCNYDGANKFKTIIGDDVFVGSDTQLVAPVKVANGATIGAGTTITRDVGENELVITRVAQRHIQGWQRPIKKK
From the text: as §1

[4] = target: Bifunctional protein GlmU (Staphylococcus aureus (strain COL), UniProt Q5HIH6); experiment: Inhibition Assay
Bifunctional protein GlmU (Staphylococcus aureus (strain COL), UniProt Q5HIH6), sequence (Q5HIH6 whole entry): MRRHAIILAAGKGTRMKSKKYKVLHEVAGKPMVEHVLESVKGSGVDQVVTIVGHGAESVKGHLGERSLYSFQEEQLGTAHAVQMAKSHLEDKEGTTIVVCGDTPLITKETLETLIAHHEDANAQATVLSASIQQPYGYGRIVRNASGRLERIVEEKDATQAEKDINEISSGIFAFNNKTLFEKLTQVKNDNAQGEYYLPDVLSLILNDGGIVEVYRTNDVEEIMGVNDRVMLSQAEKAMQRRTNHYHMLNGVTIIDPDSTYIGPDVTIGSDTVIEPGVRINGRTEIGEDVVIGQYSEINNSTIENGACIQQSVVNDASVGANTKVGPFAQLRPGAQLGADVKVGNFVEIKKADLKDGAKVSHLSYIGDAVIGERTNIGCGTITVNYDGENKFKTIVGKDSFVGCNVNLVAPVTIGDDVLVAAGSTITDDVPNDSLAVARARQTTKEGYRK
From the text: as §1

[5] = target: Bifunctional protein GlmU (Escherichia coli) (UniProt P0ACC7); experiment: Inhibition assay using GlmU bifuncation enzyme with various bacterial strains.
Bifunctional protein GlmU (Escherichia coli), sequence (P0ACC7 whole entry, looked up): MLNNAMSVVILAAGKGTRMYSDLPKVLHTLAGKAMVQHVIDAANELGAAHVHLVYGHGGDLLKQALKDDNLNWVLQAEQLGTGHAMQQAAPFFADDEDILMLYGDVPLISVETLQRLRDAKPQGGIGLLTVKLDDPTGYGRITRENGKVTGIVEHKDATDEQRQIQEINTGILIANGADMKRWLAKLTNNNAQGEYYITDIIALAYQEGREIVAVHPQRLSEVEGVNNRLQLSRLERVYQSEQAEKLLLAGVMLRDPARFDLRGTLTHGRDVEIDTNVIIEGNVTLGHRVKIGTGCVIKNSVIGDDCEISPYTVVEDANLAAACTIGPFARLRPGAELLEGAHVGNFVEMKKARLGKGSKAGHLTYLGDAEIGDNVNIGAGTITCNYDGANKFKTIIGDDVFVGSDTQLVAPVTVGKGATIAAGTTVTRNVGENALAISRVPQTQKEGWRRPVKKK

Bifunctional protein GlmU (Streptococcus pneumoniae (strain ATCC BAA-255 / R6), UniProt Q8DQ18), sequence (Q8DQ18 whole entry): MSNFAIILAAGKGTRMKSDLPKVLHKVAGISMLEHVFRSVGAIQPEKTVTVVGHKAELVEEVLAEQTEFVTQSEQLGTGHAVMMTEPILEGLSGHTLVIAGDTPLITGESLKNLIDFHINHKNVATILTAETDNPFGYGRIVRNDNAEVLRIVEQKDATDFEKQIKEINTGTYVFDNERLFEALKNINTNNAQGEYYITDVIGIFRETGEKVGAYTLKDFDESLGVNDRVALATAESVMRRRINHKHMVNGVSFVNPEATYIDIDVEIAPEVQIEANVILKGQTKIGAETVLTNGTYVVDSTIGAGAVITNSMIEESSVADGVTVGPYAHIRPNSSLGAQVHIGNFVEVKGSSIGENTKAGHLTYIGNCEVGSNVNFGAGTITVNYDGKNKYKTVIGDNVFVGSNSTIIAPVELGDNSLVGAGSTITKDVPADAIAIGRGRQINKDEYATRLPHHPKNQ
Bifunctional protein GlmU (Escherichia coli (strain K12), UniProt P0ACC7), sequence (P0ACC7 whole entry): as the sequence (P0ACC7 whole entry, looked up) above

SMILES | IC50 [1] [µM] | IC50 [2] [µM] | IC50 [3] [µM] | IC50 [4] [µM] | Kd [5] [µM]
COc1cc(OC)c(S(=O)(=O)N2c3ccccc3CC2C)cc1NC(C)=O (stereo not drawn) | > 200 | 2.1 | 7.8 | > 200 | –
COc1cc(OC)c(S(=O)(=O)N(C)c2ccccc2)cc1NC(C)=O | > 200 | – | 6.4 | – | 1.9
COc1cc(OC)c(S(=O)(=O)N(c2ccccc2)c2ccc(N)cc2)cc1NC(=O)CCC(=O)O [Sulfonamide, 3] | 40 | – | 0.4 | > 200 | –
COc1cc(O)c(S(=O)(=O)N2c3ccccc3CCC2C)cc1NC(=O)CCC(=O)O (stereo not drawn) [Sulfonamide, 4] | 4.7 | 0.058 | 0.28 | > 200 | –
COc1cc(OC)c(S(=O)(=O)N2c3ccccc3Oc3ccccc32)cc1NC(=O)CCC(=O)O [Sulfonamide, 5] | 15 | 0.007 | 0.023 | > 200 | –
